According to patent publication US20130344026A1, “Dimeric Smac Mimetics” (priority 2009, published 2013):
Read-outs that look alike come from different tables or passages of the source.

System: PANC-1 cells
Test: cell viability assay in PANC-1 cells (compound alone, + 100 ng/ml TNFa, + 300 ng/ml TRAIL)
Format: cell-based
[1] = Homo sapiens, PANC-1, compound alone, Tables 6-10, read-out: IC50 (μM) in cell viability assay in PANC-1 cells: Compound alone
[2] = with 100 ng/ml TNFa, Tables 6-10, read-out: IC50 (μM) in cell viability assay in PANC-1 cells: Compound + 100 ng/ml TNFa
[3] = with 300 ng/ml TRAIL, Tables 6-10, read-out: IC50 (μM) in cell viability assay in PANC-1 cells: Compound + 300 ng/ml TRAIL
[4] = compound alone, Tables 6-10, read-out: IC50 (μM) in cell viability assay in PANC-1 cells: Compound alone
[5] = Homo sapiens, PANC-1, compound alone, Tables 15-18, read-out: IC50 (uM) in cell viability assay in PANC-1 cells: Cmpnd alone
[6] = with 100 ng/ml TNFa, Tables 15-18, read-out: IC50 (uM) in cell viability assay in PANC-1 cells: Cmpnd + 100 ng/ml TNFa
[7] = with 300 ng/ml TRAIL, Tables 15-18, read-out: IC50 (uM) in cell viability assay in PANC-1 cells: Cmpnd + 300 ng/ml TRAIL
[8] = Homo sapiens, PANC-1 cells, compound alone, read-out: IC50 (uM) in cell viability assay in PANC-1 cells, Cmpnd alone
[9] = PANC-1 cells, + 100 ng/ml TNFa, read-out: IC50 (uM) in cell viability assay in PANC-1 cells, Cmpnd + 100 ng/ml TNFa
[10] = PANC-1 cells, + 300 ng/ml TRAIL, read-out: IC50 (uM) in cell viability assay in PANC-1 cells, Cmpnd + 300 ng/ml TRAIL

Structure (SMILES)	IC50 [1] [µM]	IC50 [2] [µM]	IC50 [3] [µM]	also measured
CN[C@@H](C)C(=O)N[C@@H](CCCCCC[C@H](NC(=O)[C@H](C)NC)C(=O)N1CCC[C@H]1CNC(=O)c1ccccn1)C(=O)N1CCC[C@H]1CNC(=O)c1ccccn1 [Compound 17]	> 1	> 1	> 1	–
CC[C@@H](NC(=O)[C@@H]1C[C@H](NC(=O)c2cccc(C(=O)N[C@H]3C[C@@H](C(=O)N[C@H](CC)c4ccccc4)N(C(=O)[C@@H](NC(=O)[C@H](C)NC)C(C)(C)C)C3)c2)CN1C(=O)[C@@H](NC(=O)[C@H](C)NC)C(C)(C)C)c1ccccc1 [Compound 1]	> 1	0.0023	0.0019	–
CN[C@@H](C)C(=O)N[C@@H](CCCCCC[C@H](NC(=O)[C@H](C)NC)C(=O)N1CC(F)(F)C[C@H]1C(=O)N[C@@H]1CCCc2ccccc21)C(=O)N1CC(F)(F)C[C@H]1C(=O)N[C@@H]1CCCc2ccccc21 [Compound 109]	> 1	0.004	0.003	–
CN[C@@H](C)C(=O)N[C@H](C(=O)N1C[C@@H](NC(=O)c2cccc(C(=O)N[C@H]3C[C@@H](C(=O)NC4CCCc5c(OC)cccc54)N(C(=O)[C@@H](NC(=O)[C@H](C)NC)C(C)(C)C)C3)c2)C[C@H]1C(=O)NC1CCCc2c(OC)cccc21)C(C)(C)C (single isomer, unassigned) [Compound 47]	–	0.012	0.011	IC50 [4]: > 1 µM
CN[C@@H](C)C(=O)N[C@@H](CCCCCC[C@H](NC(=O)[C@H](C)NC)C(=O)N1Cc2ccccc2C[C@H]1C(=O)N[C@H](C)c1ccccc1)C(=O)N1Cc2ccccc2C[C@H]1C(=O)N[C@H](C)c1ccccc1 [Compound 96]	> 1	0.211	0.417	–
CN[C@@H](C)C(=O)N[C@H](C(=O)N1CCC[C@H]1Cn1cnnc1Cc1ccccc1)[C@@H](C)OCC#CC#CCO[C@H](C)[C@H](NC(=O)[C@H](C)NC)C(=O)N1CCC[C@H]1Cn1cnnc1Cc1ccccc1 [Compound 80]	> 1	> 1	> 1	–
CN[C@@H](C)C(=O)N[C@@H](CCCCNC(=O)c1cccc(C(=O)NCCCC[C@H](NC(=O)[C@H](C)NC)C(=O)N2CCC[C@H]2Cn2nnnc2Sc2ccccc2)c1)C(=O)N1CCC[C@H]1Cn1nnnc1Sc1ccccc1 [Compound P2-48]	–	–	–	IC50 [5]: > 1 µM; IC50 [6]: 0.263 µM; IC50 [7]: 0.398 µM
CN[C@@H](C)C(=O)N[C@@H](CCC(=O)Nc1cccc(CCc2cccc(NC(=O)CC[C@H](NC(=O)[C@H](C)NC)C(=O)N3CCC[C@H]3C(=O)N[C@@H]3CCCc4ccccc43)c2)c1)C(=O)N1CCC[C@H]1C(=O)N[C@@H]1CCCc2ccccc21 [Compound P2-44]	–	–	–	IC50 [5]: > 1 µM; IC50 [6]: 0.017 µM; IC50 [7]: 0.01 µM
CN[C@@H](C)C(=O)N[C@H](C(=O)N1CCC[C@H]1CN1C(=O)OC[C@@H]1Cc1ccccc1)[C@@H](C)OCC#CC#CCO[C@H](C)[C@H](NC(=O)[C@H](C)NC)C(=O)N1CCC[C@H]1CN1C(=O)OC[C@@H]1Cc1ccccc1 [Compound 82]	> 1	0.536	0.564	–
CN[C@@H](C)C(=O)N[C@H](C(=O)N1C[C@@H](NC(=O)c2cccc(C(=O)N[C@H]3C[C@@H](C(=O)NC4CCSc5ccccc54)N(C(=O)[C@@H](NC(=O)[C@H](C)NC)C(C)(C)C)C3)c2)C[C@H]1C(=O)NC1CCSc2ccccc21)C(C)(C)C (single isomer, unassigned) [Compound 67]	> 1	0.191	0.22	–
CC[C@@H](NC(=O)[C@@H]1C[C@H](NC(=O)c2cccc(C(=O)N[C@H]3C[C@@H](C(=O)N[C@H](CC)c4ccccc4)N(C(=O)[C@@H](NC(=O)[C@H](C)NC)C(C)(C)C)C3)c2)CN1C(=O)[C@@H](NC(=O)[C@H](C)NC)C(C)(C)C)c1ccccc1 [Compound 2]	–	0.062	0.054	IC50 [4]: > 1 µM
CN[C@@H](C)C(=O)N[C@H](C(=O)N1CCC[C@H]1CN1CCC[C@H]1C(c1ccccc1)c1ccccc1)[C@@H](C)OCC#CC#CCO[C@H](C)[C@H](NC(=O)[C@H](C)NC)C(=O)N1CCC[C@H]1CN1CCC[C@H]1C(c1ccccc1)c1ccccc1 [Compound 81]	> 1	0.155	0.196	–
CN[C@@H](C)C(=O)N[C@H](C(=O)N1C[C@@H](NC(=O)c2cccc(C(=O)N[C@H]3C[C@@H](C(=O)NCc4ccc(O)c(OC)c4)N(C(=O)[C@@H](NC(=O)[C@H](C)NC)C(C)(C)C)C3)c2)C[C@H]1C(=O)NCc1ccc(O)c(OC)c1)C(C)(C)C [Compound 6]	> 1	0.471	0.31	–
CN[C@@H](C)C(=O)N[C@@H](CCCCNC(=O)NCCCC[C@H](NC(=O)[C@H](C)NC)C(=O)N1C[C@@H](Oc2ccccc2)C[C@H]1C(=O)N[C@@H]1CCCc2ccccc21)C(=O)N1C[C@@H](Oc2ccccc2)C[C@H]1C(=O)N[C@@H]1CCCc2ccccc21 [Compound P2-37]	–	–	–	IC50 [5]: > 1 µM; IC50 [6]: 0.174 µM; IC50 [7]: 0.527 µM
CN[C@@H](C)C(=O)N[C@@H](CCCCCC[C@H](NC(=O)[C@H](C)NC)C(=O)N1CCC[C@H]1c1ncc(C(=O)NC(c2ccccc2)c2ccccc2)o1)C(=O)N1CCC[C@H]1c1ncc(C(=O)NC(c2ccccc2)c2ccccc2)o1 [Compound 23]	> 1	> 1	> 1	–
CN[C@@H](C)C(=O)N[C@H](C(=O)N1C[C@@H](NC(=O)c2cccc(C(=O)N[C@H]3C[C@@H](C(=O)NC4CCOc5ccccc54)N(C(=O)[C@@H](NC(=O)[C@H](C)NC)C(C)(C)C)C3)c2)C[C@H]1C(=O)NC1CCOc2ccccc21)C(C)(C)C (single isomer, unassigned) [Compound 66]	–	0.012	0.013	IC50 [4]: > 1 µM
CN[C@@H](C)C(=O)N[C@H](C(=O)N1C[C@@H](OC(=O)c2cccc(C(=O)O[C@H]3C[C@@H](C(=O)N[C@H]4CCCc5ccccc54)N(C(=O)[C@@H](NC(=O)[C@H](C)NC)C(C)(C)C)C3)c2)C[C@H]1C(=O)N[C@H]1CCCc2ccccc21)C(C)(C)C [Compound P3-105]	–	–	–	IC50 [8]: > 1 µM
CN[C@@H](C)C(=O)N[C@@H](CCNCc1ccc(CNCC[C@H](NC(=O)[C@H](C)NC)C(=O)N2CCC[C@H]2C(=O)N[C@@H]2CCCc3ccccc32)cc1)C(=O)N1CCC[C@H]1C(=O)N[C@@H]1CCCc2ccccc21 [Compound P2-43]	–	–	–	IC50 [5]: > 1 µM; IC50 [6]: 0.012 µM; IC50 [7]: 0.016 µM
CN[C@@H](C)C(=O)N[C@@H](CCCCNC(=O)CCCCCCC(=O)NCCCC[C@H](NC(=O)[C@H](C)NC)C(=O)N1CCC[C@H]1C(=O)N[C@@H]1CCCc2ccccc21)C(=O)N1CCC[C@H]1C(=O)N[C@@H]1CCCc2ccccc21 [Compound P2-34]	–	–	–	IC50 [5]: > 1 µM; IC50 [6]: 0.04 µM; IC50 [7]: 0.064 µM
CN[C@@H](C)C(=O)N[C@H](C(=O)N1C[C@@H](NC(=O)CCCCCCCCC(=O)N[C@H]2C[C@@H](C(=O)N[C@H](C)c3ccccc3)N(C(=O)[C@@H](NC(=O)[C@H](C)NC)C(C)(C)C)C2)C[C@H]1C(=O)N[C@H](C)c1ccccc1)C(C)(C)C [Compound P3-93]	–	–	–	IC50 [8]: > 1 µM; IC50 [9]: 0.012 µM; IC50 [10]: 0.043 µM
CN[C@@H](C)C(=O)NC(C(=O)N1CCC[C@H]1C(=O)NC1CCCc2ccccc21)c1ccc(CCc2ccc([C@H](NC(=O)[C@H](C)NC)C(=O)N3CCC[C@H]3C(=O)NC3CCCc4ccccc43)cc2)cc1 (stereo partly shown) [Compound P2-35]	–	–	–	IC50 [5]: > 1 µM; IC50 [6]: 0.007 µM; IC50 [7]: 0.007 µM
CN[C@@H](C)C(=O)N[C@H](C(=O)N1C[C@@H](NC(=O)c2cccc(C(=O)N[C@H]3C[C@@H](C(=O)NC4CCCc5cc(F)ccc54)N(C(=O)[C@@H](NC(=O)[C@H](C)NC)C(C)(C)C)C3)c2)C[C@H]1C(=O)NC1CCCc2cc(F)ccc21)C(C)(C)C (single isomer, unassigned) [Compound 72]	> 1	0.0018	0.0033	–
CN[C@@H](C)C(=O)N[C@H](C(=O)N1C[C@@H](NC(=O)c2cccc(C(=O)N[C@H]3C[C@@H](C(=O)N[C@@H]4CCCc5ccc(Br)cc54)N(C(=O)[C@@H](NC(=O)[C@H](C)NC)C(C)(C)C)C3)c2)C[C@H]1C(=O)N[C@@H]1CCCc2ccc(Br)cc21)C(C)(C)C (single isomer, unassigned) [Compound 63]	–	0.143	0.162	IC50 [4]: > 1 µM
CN[C@@H](C)C(=O)N[C@@H](CC(=O)NCC[C@H](NC(=O)[C@@H](NC(=O)[C@H](C)NC)C(C)(C)C)C(=O)N[C@@H]1CCCc2ccccc21)C(=O)N1CCC[C@H]1C(=O)N[C@@H]1CCCc2ccccc21 [Compound 200]	> 1	0.046	0.084	–
C[C@H](N)C(=O)N[C@H](C(=O)N1C[C@@H](NC(=O)c2cccc(C(=O)N[C@H]3C[C@@H](C(=O)N[C@H]4CCCc5ccccc54)N(C(=O)[C@@H](NC(=O)[C@H](C)N)C(C)(C)C)C3)c2)C[C@H]1C(=O)N[C@H]1CCCc2ccccc21)C(C)(C)C [Compound P3-106]	–	–	–	IC50 [8]: > 1 µM; IC50 [9]: 0.193 µM; IC50 [10]: 0.115 µM
CN[C@@H](C)C(=O)N[C@H](C(=O)N1C[C@@H](NC(=O)c2cccc(C(=O)N[C@H]3C[C@@H](C(=O)N[C@H](C)c4ccccc4)N(C(=O)[C@@H](NC(=O)[C@H](CO)NC)C(C)(C)C)C3)c2)C[C@H]1C(=O)N[C@@H]1CCCc2ccccc21)C(C)(C)C [Compound 173]	> 1	0.01	0.019	–
